Assay results published in article PMC5974469, “A New Family of Capsule Polymerases Generates Teichoic Acid-Like Capsule Polymers in Gram-Negative Pathogens” (mBio, 2018).

Biological target: T1, Cps3D (Actinobacillus pleuropneumoniae, UniProt A0A2S0ETM3)
T1 construct: MBP-Cps3D-His6 (177 kDa), full-length, tags kept, expressed in E. coli M15[pREP4]
Test: HPLC-AEC of donor consumption, PAGE and NMR of polymer
Assay type: biochemical
Conditions: 20 mM Tris pH 8.0, 10 mM MgCl2, 1 mM DTT, 37 °C; no primer; with UDP-Gal

T1 sequence (A0A2S0ETM3 entry or part of it): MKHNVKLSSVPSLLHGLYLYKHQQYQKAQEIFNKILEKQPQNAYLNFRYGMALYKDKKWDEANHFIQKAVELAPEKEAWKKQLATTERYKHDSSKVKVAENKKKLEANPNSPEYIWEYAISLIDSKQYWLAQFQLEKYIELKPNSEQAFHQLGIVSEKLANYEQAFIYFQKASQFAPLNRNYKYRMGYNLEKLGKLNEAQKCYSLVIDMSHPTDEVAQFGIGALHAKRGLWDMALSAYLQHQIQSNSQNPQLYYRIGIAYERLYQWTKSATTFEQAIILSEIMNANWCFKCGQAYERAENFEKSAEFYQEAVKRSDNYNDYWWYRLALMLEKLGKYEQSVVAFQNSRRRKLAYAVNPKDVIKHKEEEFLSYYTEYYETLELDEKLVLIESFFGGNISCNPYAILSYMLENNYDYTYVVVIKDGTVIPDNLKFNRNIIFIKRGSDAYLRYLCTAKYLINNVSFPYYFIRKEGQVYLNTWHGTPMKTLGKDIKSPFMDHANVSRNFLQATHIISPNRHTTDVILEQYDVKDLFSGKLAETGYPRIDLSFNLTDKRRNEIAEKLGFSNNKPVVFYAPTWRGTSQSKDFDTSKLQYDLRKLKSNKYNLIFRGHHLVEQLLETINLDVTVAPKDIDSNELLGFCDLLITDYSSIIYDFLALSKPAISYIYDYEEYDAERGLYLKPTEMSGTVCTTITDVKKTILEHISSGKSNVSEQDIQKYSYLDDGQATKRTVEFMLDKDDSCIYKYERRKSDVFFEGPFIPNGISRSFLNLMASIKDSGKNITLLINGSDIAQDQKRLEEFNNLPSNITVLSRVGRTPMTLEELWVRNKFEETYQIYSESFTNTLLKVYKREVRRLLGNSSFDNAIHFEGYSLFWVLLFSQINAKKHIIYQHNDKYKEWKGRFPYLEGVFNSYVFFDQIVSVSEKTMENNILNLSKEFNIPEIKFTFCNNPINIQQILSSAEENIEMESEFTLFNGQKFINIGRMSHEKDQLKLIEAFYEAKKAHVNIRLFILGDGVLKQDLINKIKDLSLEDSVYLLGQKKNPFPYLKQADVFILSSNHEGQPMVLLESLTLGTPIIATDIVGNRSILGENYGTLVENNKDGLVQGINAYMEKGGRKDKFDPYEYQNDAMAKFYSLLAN

Compound: Nc1ccn([C@@H]2O[C@H](COP(=O)(O)OP(=O)(O)OC[C@H](O)CO)[C@@H](O)[C@H]2O)c(=O)n1 (racemic) [CDP-glycerol]
- HPLC-AEC of donor consumption, PAGE and NMR of polymer: both enantiomers are substrates for the enzymes as shown by the complete consumption of CDP-glycerol
